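Values below derive from 48-hour exposures of cells grown in 96-well plates, with endpoints linearly interpolated between the two concentrations bracketing the appropriate inhibition level. TGI: concentration producing complete growth inhibition.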
test system: A549 NSCLC; assay: DTP human tumour cell line panel, 48 h

SMILES	TGI [µM]
S=C(NCc1ccccc1)c1nc[nH]c1C(=S)NCc1ccccc1	15.1
O=C(c1ccc(O)cc1)C1c2c3c(cc(O)c2C(c2ccc(O)cc2)C1c1cc(O)cc(O)c1)OC(c1ccc(O)cc1)C3c1cc2c(cc1O)OC(c1ccc(O)cc1)C2c1cc(O)cc(O)c1 (stereo unspecified)	> 12.5
Cc1cc2nc3c(C#N)c(-c4ccccc4)cc(Nc4ccc(Cl)cc4)n3c2cc1C	> 100
CC(=O)OCCn1cnc2nc(Nc3ccccc3)nc(Cl)c21	> 100
CCC1(CC)SCc2nc3ccccc3n21	> 100
O=C1OC[C@@H]2Cc3cc4c(cc3[C@H](c3ccc5c(c3)OCO5)[C@@H]12)OCO4	> 25
N#C/C(C(=O)Nc1ccccc1)=C(/N)N1CCOCC1	> 100
O/N=C1/COC(C(F)(F)F)(C(F)(F)F)C1	> 100
O=S1(=O)OCCOS(=O)(=O)C1F	> 100
C[C@]12CC[C@H](O)CC1=CC[C@@H]1[C@@H]2CC[C@]2(C)C(=O)[C@@H](N3CCOCC3)C[C@@H]12	> 100
CC(=O)n1nc(-c2ccccc2)n(/N=C/c2ccc([N+](=O)[O-])cc2)c1=O	> 100
COc1ccc(C(=O)Sc2c(-c3ccccc3)c(=O)n(-c3ccccc3)c(=S)n2-c2ccccc2)cc1	> 100
Cc1ccc(S(=O)(=O)N/N=C/C(=C/c2ccc(Cl)cc2)CC(/C=N/NS(=O)(=O)c2ccc(C)cc2)=C\c2ccc(Cl)cc2)cc1	> 100
COc1cc(C[S+]2CCCC2)c(SC)cc1C[S+]1CCCC1	> 100
COCCOCc1nc(C#N)c(N)o1	> 100
CC1=C(C#N)C(C#N)(C#N)C(NN(C)C)C1 (stereo unspecified)	> 100
C[C@]12C=CC(=O)C=C1CC[C@H]1[C@@H]3C[C@@H](O)[C@](O)(C(=O)CO)[C@@]3(C)C[C@H](O)[C@@]12F	> 100
CCSc1n/c(=C\c2ccco2)c2nnnn12	> 100
CCOC(=O)C1=C(C)N(C)C23OC4(C(=O)OC)CC2c2ccccc2C1N3C4=O (stereo unspecified)	> 100
CC(=O)c1c2c(cc3c1CC1(Cc4ccccc4C1=O)C3)CCC2 (stereo unspecified)	> 100
CC(=O)NC1C(OCc2ccccc2)OC(CO)C(O)C1OC(C)C(=O)NC(C)C(=O)NC(CCC(=O)NCCCNc1c2ccccc2nc2cccc([N+](=O)[O-])c12)C(N)=O (stereo unspecified)	11.6
COc1cc(Nc2cnc3cc(F)c(F)cc3n2)cc(OC)c1OC	> 100
COC(C)(C)C1=CCC(C)CC1 (stereo unspecified)	> 100
C=C1CC(c2ccc(OCCCN3C(=O)c4ccccc4C3=O)c(OC)c2)OC1=O (stereo unspecified)	27
c1ccc2sc(C3(N4CCCC4)CCCCCC3)cc2c1	43

test system: BT-549 breast; assay: DTP human tumour cell line panel, 48 h

SMILES	TGI [µM]
S=C(NCc1ccccc1)c1nc[nH]c1C(=S)NCc1ccccc1	27.2
Cc1cc2nc3c(C#N)c(-c4ccccc4)cc(Nc4ccc(Cl)cc4)n3c2cc1C	> 100
O=C1OC[C@@H]2Cc3cc4c(cc3[C@H](c3ccc5c(c3)OCO5)[C@@H]12)OCO4	> 25
N#C/C(C(=O)Nc1ccccc1)=C(/N)N1CCOCC1	> 100
O=S1(=O)OCCOS(=O)(=O)C1F	> 100
CC(=O)n1nc(-c2ccccc2)n(/N=C/c2ccc([N+](=O)[O-])cc2)c1=O	> 100
CCSc1n/c(=C\c2ccco2)c2nnnn12	> 100
CCOC(=O)C1=C(C)N(C)C23OC4(C(=O)OC)CC2c2ccccc2C1N3C4=O (stereo unspecified)	> 100
COc1cc(Nc2cnc3cc(F)c(F)cc3n2)cc(OC)c1OC	> 100
COc1ccc(C2CC(=O)CC(c3ccc(OC)cc3)C23C(=O)NC(=O)NC3=O)cc1 (stereo unspecified)	> 100
COC(C)(C)C1=CCC(C)CC1 (stereo unspecified)	> 100
c1ccc2sc(C3(N4CCCC4)CCCCCC3)cc2c1	51.9

test system: CAKI-1 renal; assay: DTP human tumour cell line panel, 48 h

SMILES	TGI [µM]
S=C(NCc1ccccc1)c1nc[nH]c1C(=S)NCc1ccccc1	18.7
O=C(c1ccc(O)cc1)C1c2c3c(cc(O)c2C(c2ccc(O)cc2)C1c1cc(O)cc(O)c1)OC(c1ccc(O)cc1)C3c1cc2c(cc1O)OC(c1ccc(O)cc1)C2c1cc(O)cc(O)c1 (stereo unspecified)	> 12.5
Cc1cc2nc3c(C#N)c(-c4ccccc4)cc(Nc4ccc(Cl)cc4)n3c2cc1C	> 100
CCC1(CC)SCc2nc3ccccc3n21	95.7
O=C1OC[C@@H]2Cc3cc4c(cc3[C@H](c3ccc5c(c3)OCO5)[C@@H]12)OCO4	> 25
N#C/C(C(=O)Nc1ccccc1)=C(/N)N1CCOCC1	> 100
O/N=C1/COC(C(F)(F)F)(C(F)(F)F)C1	> 100
O=S1(=O)OCCOS(=O)(=O)C1F	> 100
C[C@]12CC[C@H](O)CC1=CC[C@@H]1[C@@H]2CC[C@]2(C)C(=O)[C@@H](N3CCOCC3)C[C@@H]12	> 100
CC(=O)n1nc(-c2ccccc2)n(/N=C/c2ccc([N+](=O)[O-])cc2)c1=O	> 100
COc1ccc(C(=O)Sc2c(-c3ccccc3)c(=O)n(-c3ccccc3)c(=S)n2-c2ccccc2)cc1	> 100
Cc1ccc(S(=O)(=O)N/N=C/C(=C/c2ccc(Cl)cc2)CC(/C=N/NS(=O)(=O)c2ccc(C)cc2)=C\c2ccc(Cl)cc2)cc1	68.4
COc1cc(C[S+]2CCCC2)c(SC)cc1C[S+]1CCCC1	> 100
COCCOCc1nc(C#N)c(N)o1	> 100
CC1=C(C#N)C(C#N)(C#N)C(NN(C)C)C1 (stereo unspecified)	7
C[C@]12C=CC(=O)C=C1CC[C@H]1[C@@H]3C[C@@H](O)[C@](O)(C(=O)CO)[C@@]3(C)C[C@H](O)[C@@]12F	> 100
CCSc1n/c(=C\c2ccco2)c2nnnn12	> 100
CCOC(=O)C1=C(C)N(C)C23OC4(C(=O)OC)CC2c2ccccc2C1N3C4=O (stereo unspecified)	> 100
CC(=O)c1c2c(cc3c1CC1(Cc4ccccc4C1=O)C3)CCC2 (stereo unspecified)	66
